Measurements published in patent US20210269426A1, “MICROBIOCIDAL OXADIAZOLE DERIVATIVES” (SYNGENTA CROP PROTECTION AG, priority 2018, published 2021).

How the values were obtained:
[1] = system: Glomerella lagenarium (Colletotrichum lagenarium); experiment: Glomerella lagenarium (Colletotrichum lagenarium) liquid culture / cucumber / preventative (anthracnose); format: cell-based; details: Colletotrichum orbiculare; 20 ppm in the applied formulation; liquid culture in PDB, 24° C., 3 to 4 days after application; read-out: disease control (inhibition of growth, photometric)
Experimental: Mycelia fragments or conidia suspensions of a fungus prepared either freshly from liquid cultures of the fungus or from cryogenic storage, are directly mixed into nutrient broth. DMSO solutions of the test compound (max. 10 mg/ml) are diluted with 0.025% Tween20 by a factor of 50 and 10 μl of this solution is pipetted into a microtiter plate (96-well format). The nutrient broth containing the fungal spores/mycelia fragments is then added to give an end concentration of the tested compound. The test plates are incubated in the dark at 24° C. and 96% relative humidity. The inhibition of fungal growth is determined photometrically after 2 to 7 days, depending on the pathosystem, and percent antifungal activity relative to the untreated check is calculated.
Conidia of the fungus from cryogenic storage are directly mixed into nutrient broth (PDB—potato dextrose broth). After placing a (DMSO) solution of test compound into a microtiter plate (96-well format), the nutrient broth containing the fungal spores is added. The test plates are incubated at 24° C. and the inhibition of growth is measured photometrically 3 to 4 days after application.
The following compounds at 20 ppm in the applied formulation give at least 80% disease control in this test when compared to untreated control under the same conditions, which show extensive disease development.

[2] = system: Puccinia recondita f. Sp. Tritici; experiment: Puccinia recondita f. sp. tritici / wheat / leaf disc preventative (brown rust); format: in vivo; details: foliar, 200 ppm in the applied formulation, wheat leaf segments cv. Kanzler, inoculated 1 day after application, assessed 7 to 9 days after application, read-out: disease control
Experimental: Leaf disks or leaf segments of various plant species are cut from plants grown in a greenhouse. The cut leaf disks or segments are placed in multiwell plates (24-well format) onto water agar. The leaf disks are sprayed with a test solution before (preventative) or after (curative) inoculation. Compounds to be tested are prepared as DMSO solutions (max. 10 mg/ml) which are diluted to the appropriate concentration with 0.025% Tween20 just before spraying. The inoculated leaf disks or segments are incubated under defined conditions (temperature, relative humidity, light, etc.) according to the respective test system. A single evaluation of disease level is carried out 3 to 14 days after inoculation, depending on the pathosystem. Percent disease control relative to the untreated check leaf disks or segments is then calculated. Wheat leaf segments cv. Kanzler were placed on agar in multiwell plates (24-well format) and sprayed with the formulated test compound diluted in water. The leaf disks were inoculated with a spore suspension of the fungus 1 day after application. The inoculated leaf segments were incubated at 19° C. and 75% relative humidity (rh) under a light regime of 12 hours light/12 hours darkness in a climate cabinet and the activity of a compound was assessed as percent disease control compared to untreated when an appropriate level of disease damage appears in untreated check leaf segments (7 to 9 days after application). The following compounds at 200 ppm in the applied formulation give at least 80% disease control in this test when compared to untreated control leaf disks under the same conditions, which show extensive disease development.

SMILES | melting point | inhibition at 20 ppm [1] | pest or weed control at 200 ppm [2]
CN(C)C(=O)C(=O)c1ccc(-c2noc(C(F)(F)F)n2)s1 [Compound 1.3, N,N-dimethyl-2-oxo-2-[5-[5-(trifluoromethyl)-1,2,4-oxadiazol-3-yl]-2-thienyl]acetamide] | 88.4 to 89.4 °C | ≥ 80% | ≥ 80%
CON(C)C(=O)C(=O)c1ccc(-c2noc(C(F)(F)F)n2)s1 [Compound 1.4, N-methoxy-N-methyl-2-oxo-2-[5-[5-(trifluoromethyl)-1,2,4-oxadiazol-3-yl]-2-thienyl]acetamide] |  | ≥ 80% | ≥ 80%
CONC(=O)C(=O)c1ccc(-c2noc(C(F)(F)F)n2)s1 [Compound 1.5, N-methoxy-2-oxo-2-[5-[5-(trifluoromethyl)-1,2,4-oxadiazol-3-yl]-2-thienyl]acetamide] | 109.7 to 112.1 °C | ≥ 80% | ≥ 80%
COCCNC(=O)C(=O)c1ccc(-c2noc(C(F)(F)F)n2)s1 [Compound 1.2, N-(2-methoxyethyl)-2-oxo-2-[5-[5-(trifluoromethyl)-1,2,4-oxadiazol-3-yl]-2-thienyl]acetamide] | 106 to 107.1 °C | ≥ 80% | ≥ 80%
O=C(NCc1ccccc1Cl)C(=O)c1ccc(-c2noc(C(F)(F)F)n2)s1 [Compound 1.1, N-[(2-chlorophenyl)methyl]-2-oxo-2-[5-[5-(trifluoromethyl)-1,2,4-oxadiazol-3-yl]-2-thienyl]acetamide] | 94 to 95.2 °C | ≥ 80% | ≥ 80%

More lines, main results first:

melting point | SMILES | inhibition at 20 ppm [1] | pest or weed control at 200 ppm [2]
96.2 to 98.7 °C | CNC(=O)C(=O)c1ccc(-c2noc(C(F)(F)F)n2)s1 [Compound 1.7, N-methyl-2-oxo-2-[5-[5-(trifluoromethyl)-1,2,4-oxadiazol-3-yl]-2-thienyl]acetamide] | ≥ 80% | ≥ 80%
122.1 to 126.7 °C | O=C(NC1CC1)C(=O)c1ccc(-c2noc(C(F)(F)F)n2)s1 [Compound 1.8, N-cyclopropyl-2-oxo-2-[5-[5-(trifluoromethyl)-1,2,4-oxadiazol-3-yl]-2-thienyl]acetamide] | ≥ 80% | ≥ 80%
142.7 to 144.6 °C | CCNC(=O)C(=O)c1ccc(-c2noc(C(F)(F)F)n2)s1 [Compound 1.6, N-ethyl-2-oxo-2-[5-[5-(trifluoromethyl)-1,2,4-oxadiazol-3-yl]-2-thienyl]acetamide] | ≥ 80% | ≥ 80%
